Experimental data reported in PMC3724992, “Identification of new HLA-A*0201-restricted cytotoxic T lymphocyte epitopes from neuritin” (Journal of Neuro-Oncology, 2013).

What was measured:
[1] = biological target: T1, HLA-A*0201 molecules on T2 cells (Homo sapiens, UniProt P04439, D140Y/D185E/D98H/E176V/E277Q/G131W/G231S/I119V/I121R/I166T/I218V/L300P/L318F/N151K/N90K/P208A/P217A/Q86G/Q94H/R138H/R169H/T345S); test: Peptide-binding assay: up-regulation of HLA-A*0201 on T2 cells; settings: for FI (fluorescence index): 1 × 10^6 T2 cells, 50 μM peptide, serum-free RPMI 1640, β2-microglobulin 3 μg/ml, 16 h, 37 °C, flow cytometry with anti-HLA-A2 Ab (BB7.2) and FITC secondary, mean of triplicate; for affinity to HLA-A2.1 (in words): T2 cells, authors' grading of the Table 2 data
T1 construct: endogenous in cells; host or cells: T2 cells
Experimental: To determine whether the candidate epitopes can bind to HLA-A*0201 molecules, up-regulation of peptide-induced HLA-A*0201 molecules on T2 cells was examined. Briefly, according to previous reference, 1 × 10^6 T2 cells were incubated with 50 μM of the synthesized peptides in serum-free RPMI 1640 medium supplemented with β2-microglobulin (Sigma) at a concentration of 3 μg/ml for 16 h at 37 °C, 5 % CO2 [18]. Expression of HLA-A*0201 on T2 cells was then determined with the FACS Calibur flow cytometer (Becton–Dickinson, USA), by staining with primary anti-HLA-A2 Ab derived from BB7.2 and FITC-labeled goat-antimouse IgG (BD Biosciences Pharmingen, USA) secondary antibody. The data were analyzed using Cell Quest software (Becton–Dickinson, USA). The Fluorescence index (FI) was calculated as follows: FI = (mean FITC fluorescence with the given peptide − mean FITC fluorescence without peptide)/(mean FITC fluorescence without peptide). Samples were measured in triplicate and then mean FI was calculated. An octapeptide mHpa (519–526) ([…]) derived from mouse Hpa was served negative control.

[2] = biological target: T2, HLA-A*0201/peptide complexes on T2 cells (Homo sapiens, UniProt P04439, D140Y/D185E/D98H/E176V/E277Q/G131W/G231S/I119V/I121R/I166T/I218V/L300P/L318F/N151K/N90K/P208A/P217A/Q86G/Q94H/R138H/R169H/T345S); test: Peptide/HLA-A*0201 complex stability on T2 cells; assay type: binding; settings: authors' grading of the Table 2 data
T2 construct: Expression of HLA-A*0201 on T2 cells was then determined; endogenous in cells; host or cells: T2 cells
Experimental: Briefly, T2 cells (10^6/ml) were incubated overnight with the candidate peptides, respectively, at a concentration of 20 μg/ml in serum-free medium supplemented with β2-microglobulin at a concentration of 3 μg/ml at 37 °C.
Thereafter, they were washed four times to remove free peptides, incubated with Brefeldin A (10 µg/ml) for 1 h to block cell surface expression of newly synthesized HLA-A2.1 molecules, washed and incubated at 37 °C for 0, 2, 4, 6, or 8 h. Subsequently, cells were stained with anti-HLA-A2 antibody from BB7.2 cells to evaluate the HLA-A2.1 molecule expression. For each time point, peptide induced HLA-A*0201 expression was evaluated by the formula mentioned above. Dissociation complex50 (DC50) was defined as the time required for the loss of 50 % of the HLA-A*0201/peptide complexes stabilized at time = 0.

[3] = system: target cells expressing neuritin and HLA-A2.1; test: 4-h 51Cr release cytotoxicity assay of CTLs induced in vitro; assay type: cell-based, human; settings: PBMCs from four HLA-A2.1+ donors stimulated with peptide-pulsed DCs, E/T 25:1, 50:1, 100:1, triplicate
Experimental: (§1) PBMCs were isolated from healthy HLA-A2+ donors by Ficoll–Hypaque density gradient centrifugation (TBC company, Tianjing, China) and then seeded into culture flasks in RPMI-1640 medium supplemented with penicillin (100 U/ml), streptomycin (100 μg/ml), and 10 % FBS. After monocytes adhered (incubation for 2 h), the nonadherent cells were collected and frozen in freeze medium (60 % RPMI-1640 and 30 % FBS, 10 % DMSO) for later use in CTL assays. The adherent cells were cultured for 5 days in RPMI-1640 containing 1,000 U/ml of granulocyte–macrophage colony-stimulating factor (R&D Systems, Inc., Minneapolis, MN) and interleukin-4 (IL-4; R&D Systems, Inc.) and were the cultured for an additional 2 days in the presence of 1,000 U/ml of tumor necrosis factor α (R&D Systems, Inc.) to induce final maturation. After 7 days of culture, the mature DCs were harvested and analyzed for DC typical phenotypes by FACS analysis.
(§2) Briefly, DCs were loaded with different peptides at a final concentration of 100 μg/ml for 4 h and were then irradiated with 20 Gy, which prevented all outgrowths in the control cultures. Autologous T cells were restimulated every 7 days with the previously mentioned peptide-pulsed DCs to generate peptide-specific CTLs. Recombinant interleukin 2 (IL-2) at a concentration of 20 U/ml was added to the culture medium on day 3 after every stimulation. Cytotoxic T lymphocyte activity was then assessed on day 23 by a 4 h ^51Cr release assay. Effectors generated from negative peptide-pulsed DCs were used as controls.
To evaluate the levels of CTL activity, a standard 4-h ^51Cr release assay was used. Briefly, target cells were incubated with ^51Cr (100 μCi per 1 × 10^6 cells) for 2 h in a 37 °C water bath. […] After a 4-h incubation, the supernatants were harvested, and the amount of released ^51Cr was measured with a gamma counter. The percent specific lysis was calculated according to the following formula: […]
Fig. 3 Specific lysis of CTLs against target cells. […] After a 4-h incubation, the supernatants were harvested, and the amount of released ^51Cr was measured with a gamma counter. […]

[4] = system: neuritin and HLA-A2.1 positive cells; test: In vivo immunogenicity: CTLs from immunized mice, 51Cr release assay; settings: HLA-A*0201/Kb mice, 100 μg peptide in IFA, boosted once a week for three times, splenocytes 7 days after immunization as effectors
Experimental: To evaluate the levels of CTL activity, a standard 4-h ^51Cr release assay was used. Briefly, target cells were incubated with ^51Cr (100 μCi per 1 × 10^6 cells) for 2 h in a 37 °C water bath. After incubation with ^51Cr, target cells were washed three times with PBS, resuspended in RPMI-1640 medium, and mixed with effector cells at a 25:1, 50:1 or 100:1 of effector to target (E/T) ratio. Assays were performed in triplicate for each sample at each ratio in a 96-well round-bottomed plate. After a 4-h incubation, the supernatants were harvested, and the amount of released ^51Cr was measured with a gamma counter. The percent specific lysis was calculated according to the following formula:
Specific lysis = (experimental release − spontaneous release)/(maximal release − spontaneous release) × 100 %
(§3) HLA-A*0201/Kb mice were immunized with 100 μg of various peptides prepared in incomplete Freund’s adjuvant (IFA) and boosted once a week for three times. As a control, mice were injected with an IFA emulsion without peptide. 7 days after immunization, splenocytes from injected animals were cultured and used as effector cells.
as §3, with “Fig. 5 In vivo induction of epitope-specific CTLs in vivo. HLA-A*0201/Kb” for “HLA-A*0201/Kb”, “cells. The cytotoxic activities of CTLs were determined against target cells at various E/T ratios using ^51Cr release assay. […] Compared with controls, P < 0.05” for “cells.”

IFN-γ-producing T cells = test: IFN-γ ELISPOT assay of peptide-induced effectors; assay type: cell-based; settings: human HLA-A2+ donor T cells restimulated every 7 days with DCs pulsed with 100 μg/ml peptide; assessed on day 23; triplicate; compared to negative peptide control, P < 0.05
Experimental: as §1, §2
IFN-γ secretion of effectors was assayed by enzyme-linked immunospot (ELISPOT). Multiscreen 96-well assay plates (Dakewe, Shenzhen, China) were precoated overnight at 4 °C with anti-IFN-γ antibody according to the manufacturer’s instruction. After washing with PBST (PBS-0.05 % Tween 20), plates were blocked for 1 h at 37 °C with PBS/1 % BSA. […] After being air-dried, the number of spots in each well was counted using the Bioreader 4000 PRO-X (Bio-Sys; Germany).
Fig. 2 Specific IFN-γ by ELISPOT assay. […] The IFN-γ secretion was then assessed on day 23. […]

| Sequence | FI (fluorescence index) [1] | stability to HLA-A2.1 (in words) [2] | affinity to HLA-A2.1 (in words) [1] | induction of neuritin-specific CTLs that lyse target cells [3] | lysis of target cells by CTLs primed in immunized mice [4] | peptide-specific T cell response (frequency of IFN-γ-producing T cells) (IFN-γ-producing T cells) |
| --- | --- | --- | --- | --- | --- | --- |
| ILAVQIAYL [neuritin13–21] | 1.68 | high | high | able to elicit neuritin-specific CTLs | could lyse neuritin and HLA-A2.1 positive cells with high efficiency | strong peptide-specific T cell response |
| KLNGRYISL [neuritin4–12] | 1.07 | – | moderate | able to elicit neuritin-specific CTLs | could lyse neuritin and HLA-A2.1 positive cells with high efficiency | strong peptide-specific T cell response |

More lines, main results first:

| FI (fluorescence index) [1] | stability to HLA-A2.1 (in words) [2] | affinity to HLA-A2.1 (in words) [1] | Sequence | induction of neuritin-specific CTLs that lyse target cells [3] | lysis of target cells by CTLs primed in immunized mice [4] | peptide-specific T cell response (frequency of IFN-γ-producing T cells) (IFN-γ-producing T cells) |
| --- | --- | --- | --- | --- | --- | --- |
| 0.38 | – | – | FSYGFFVI [mHpa (519–526), reference compound] | – | – | – |
| 1.24 | – | moderate | LLPAFPVLL [neuritin121–129] | able to elicit neuritin-specific CTLs | could lyse neuritin and HLA-A2.1 positive cells with high efficiency | strong peptide-specific T cell response |
| 0.68 | low | low | VLLVSLSAA [neuritin127–135] | – | – | – |
